Measured values from patent US11969433B2, “Compositions and methods for muscle regeneration using prostaglandin E2” (The Board of Trustees of the Leland Stanford Junior …, priority 2016, dated 2024).

Columns and labels:
[1] = system: aged MuSCs; experiment: Aged MuSC numbers after acute 24 hr treatment, hydrogel culture; format: cell-based, mouse; settings: 1-day pulse; PGE2 10 ng/ml or SW033291 1 μM; assayed day 7
Protocol: (§1) Following isolation, we resuspended MuSCs in myogenic cell culture medium containing DMEM/F10 (50:50), 15% FBS, 2.5 ng ml^−1 fibroblast growth factor-2 (FGF-2 also known as bFGF) and 1% penicillin-streptomycin. We seeded MuSC suspensions at a density of 500 cells per cm^2 surface area. We maintained cell cultures at 37° C. in 5% CO2 and changed medium daily. […]
(§2) To assay proliferation, we used three different assays (hemocytometer, VisionBlue, and EdU). […] For hemocytometer cell number count, we collected cells at indicated timepoints by incubation with 0.5% trypsin in PBS for 5 min at 37° C. and quantified them using a hemocytometer at least 3 times. Additionally, we used the VisionBlue Quick Cell Viability Fluorometric Assay Kit (BioVision, catalog #K303) as a readout for cell growth in culture. Briefly, we incubated MuSCs with 10% VisionBlue in culture medium for 3 h, and measured fluorescence intensity on a fluorescence plate reader (Infinite M1000 PRO, Tecan) at Ex=530-570 nm, Em=590-620 nm. […] We quantified EdU positive cells using the MetaMorph Image Analysis software (Molecular Devices). Data analyses were blinded, where researchers performing cell scoring were unaware of the treatment condition given to sample groups analyzed.

[2] = system: MuSCs; experiment: Quantitative RT-PCR of MuSC transcripts; format: cell-based, mouse; settings: aged MuSCs, 1-day pulse
From the text: We isolated RNA from MuSCs using the RNeasy Micro Kit (Qiagen). For muscle samples, we snap froze the tissue in liquid nitrogen, homogenized the tissues using a mortar and pestle, followed by syringe and needle trituration, and then isolated RNA using Trizol (Invitrogen). We reverse-transcribed cDNA from total mRNA from each sample using the SensiFAST™ cDNA Synthesis Kit (Bioline). We subjected cDNA to RT-PCR using SYBR Green PCR Master Mix (Applied Biosystems) or TaqMan Assays (Applied Biosystems) in an ABI 7900HT Real-Time PCR System (Applied Biosystems). We cycled samples at 95° C. for 10 min and then 40 cycles at 95° C. for 15 s and 60° C. for 1 min. To quantify relative transcript levels, we used 2-ΔΔCt to compare treated and untreated samples and expressed the results relative to Gapdh. For SYBR Green qRT-PCR, we used the following primer sequences: Gapdh. forward 5′-[…]-3′ (SEQ ID NO: 1), reverse 5′-CCCTTTTGGCTCCACCCT-3′ (SEQ ID NO: 2); Hpgd, forward 5′-[…]-3′ (SEQ ID NO: 3), reverse 5′-[…]-3′ (SEQ ID NO: 4); Ptges, forward 5′-GCTGTCATCACAGGCCAGA-3′ (SEQ ID NO: 5), reverse 5′-[…]-3′ (SEQ ID NO: 6); Ptges2, forward 5′-[…]-3′ (SEQ ID NO: 7), reverse 5′-[…]-3′ (SEQ ID NO: 8); Ptger1, forward 5′ GTGGTGTCGTGCATCTGCT-3′ (SEQ ID NO: 9), reverse, 5′ […]-3′ (SEQ ID NO: 10), and Ptger2, forward 5′-[…]-3′ (SEQ ID NO: 11), reverse 5′-[…]-3′ (SEQ ID NO: 12). TaqMan Assays (Applied Biosystems) were used to quantify Pax7. Myogenin. Slco2a1 (PGT), Ptger3 and Ptger4 in samples according to the manufacturer instructions with the TaqMan Universal PCR Master Mix reagent kit (Applied Biosystems). Transcript levels were expressed relative to Gapdh levels. For SYBR Green qPCR, Gapdh qPCR was used to normalize input cDNA samples. For Taqman qPCR, multiplex qPCR enabled target signals (FAM) to be normalized individually by their internal Gapdh signals (VIC).

[3] = system: hematopoietic, liver, and colon tissues; settings: delivery of 15-PGDH inhibitor; cited from earlier work
[4] = system: MuSCs; experiment: Young MuSC numbers after acute PGE2 treatment, hydrogel culture (hemocytometer count); format: cell-based, mouse; settings: ONO-AE3-208 1 μM, PGE2 10 ng/ml, 24 hr
Protocol: as §1, §2

[5] = system: Tibialis anterior (TA); experiment: Muscle twitch force after injury and indomethacin injection; format: in vivo, mouse; settings: day 14 post-injury, indomethacin into cardiotoxin-injured muscles
[6] = system: endogenous MuSCs; experiment: Endogenous MuSCs by Pax7-luciferase BLI after cardiotoxin injury; format: in vivo, mouse
Protocol: We performed bioluminescence imaging (BLI) using a Xenogen-100 system, as previously described^1,5,6. Briefly, we anesthetized mice using isofluorane inhalation and administered 120 μL D-luciferin (0.1 mmol kg^−1, reconstituted in PBS; Caliper LifeSciences) by intraperitoneal injection. We acquired BLI using a 60 s exposure at F-stop=1.0 at 5 minutes after luciferin injection. Digital images were recorded and analyzed using Living Image software (Caliper LifeSciences). We analyzed images with a consistent region-of-interest (ROI) placed over each hindlimb to calculate a bioluminescence signal. We calculated a bioluminescence signal in radiance (p s^−1 cm^−2 sr^−1) value of 10^4 to define an engraftment threshold. This radiance threshold of 10^4 is approximately equivalent to the total flux threshold in p/s reported previously. This BLI threshold corresponds to the histological detection of one or more GFP+ myofibers^1,5,6. We performed BLI imaging every week after transplantation.
For Pax7^CreERT2; Rosa26-LSL-Luc mice experiments, we treated mice with five consecutive daily intraperitoneal injections of tamoxifen to activate luciferase expression under the control of the Pax7 promoter. A week after the last tamoxifen injection, mice were subjected to intramuscular injection of 10 μl of cardiotoxin (10 μM; Latoxan), which we designated as day 0 of the assay. […]

[7] = system: gastrocnemius (GA) muscle; experiment: In vivo muscle force after downhill treadmill run, aged mice (Example 1); set-up: species or system mouse; settings: dmPGE2 daily 5 days in week 1, force at week 5
Protocol: Aged mice (18 mo.) were subjected to downhill treadmill run for 2 consecutive weeks. During week 1, mice ran daily for 5 days and rested on days 6 and 7. Two hours after each treadmill run during week 1, each (lateral and medial) gastrocnemius (GA) muscle from both legs of each mouse was injected with a dose of either PBS (vehicle control) or 13 nM dmPGE2 (experimental group). During week 2, mice were subjected to 5 days treadmill run only. The treadmill run was performed using the Exer3/6 (Columbus Instruments). Mice ran for 10 minutes on the treadmill at 20 degrees downhill, starting at a speed of 7 meters/min. After 3 min, the speed was increased by 1 meter/min to a final speed of 14 meter/min. […] Force measurements were on the GA muscles at week 5 based on a protocol published previously^5. […] Data were collected with a PCI-6251 acquisition card (National Instruments) and analyzed in Matlab. We calculated specific force values by normalizing the force measurements by the muscle physiological cross-sectional areas (PCSAs), which were similar between the control and the experimental PGE2 treated group (Table 2). PCSA (measured in mm^2) was calculated according to the following equation^12: PCSA (mm^2)=[mass (g)×Cos θ]÷[ρ(g/mm^3)×fiber length (mm)], where θ is pennation angle of the fiber and ρ is muscle density (0.001056 g/mm^3). […]

[8] = system: MuSCs; experiment: MuSC transplantation into injured TA muscle, engraftment by bioluminescence imaging; format: in vivo, mouse
[9] = system: tibialis anterior (TA) muscle; experiment: Intramuscular dmPGE2 after cardiotoxin injury of TA, histology (PAX7, myofiber CSA); format: in vivo, mouse
Protocol: We used an injury model entailing intramuscular injection of 10 μl of notexin (10 μg ml^−1; Latoxan) or cardiotoxin (10 μM; Latoxan) into the TA muscle. For cryoinjury, an incision was made in the skin overlying the TA muscle and a copper probe, chilled in liquid nitrogen, was applied to the TA muscle for three 10 s intervals, allowing the muscle to thaw between each application of the cryoprobe. When indicated, 48 hr after injury either 16,16-Dimethyl Prostaglandin E2 (dmPGE2) (13 nmol, Tocris, catalog #4027) or vehicle control (PBS) was injected into the TA muscle. The contralateral TA was used as an internal control. We collected tissues 14 days post-injury for analysis.
We collected and prepared recipient TA muscle tissues for histology as previously described^5,6. We incubated transverse sections with anti-LAMININ (Millipore, clone A5, catalog #05-206, 1:200), and anti-PAX7 (Santa Cruz Biotechnology, catalog #sc-81648, 1:50) primary antibodies and then with AlexaFluor secondary Antibodies (Jackson ImmunoResearch Laboratories, 1:200). We counterstained nuclei with DAPI (Invitrogen). We acquired images with an AxioPlan2 epifluorescent microscope (Carl Zeiss Microimaging) with Plan NeoFluar 10×/0.30NA or 20×/0.75NA objectives (Carl Zeiss) and an ORCA-ER digital camera (Hamamatsu Photonics) controlled by the SlideBook (3i) software. The images were cropped using Adobe Photoshop with consistent contrast adjustments across all images from the same experiment. The image composites were generated using Adobe Illustrator. We analyzed the number of PAX7 positive cells using the MetaMorph Image Analysis software (Molecular Devices), and the fiber area using the Baxter Algorithms for Myofiber Analysis that identified the fibers and segmented the fibers in the image to analyze the area of each fiber. For PAX7 quantification we examined serial sections spanning a depth of at least 2 mm of the TA. For fiber area at least 10 fields of LAMININ-stained myofiber cross-sections encompassing over 400 myofibers were captured for each mouse as above. Data analyses were blinded. The researchers performing the imaging acquisition and scoring were unaware of treatment condition given to sample groups analyzed.

CCCC[S+]([O-])c1sc2nc(-c3cccs3)cc(-c3ccccc3)c2c1N (stereo not shown) [SW033291]
proliferation of aged MuSCs [1]: increase | Pax7 expression in aged MuSCs [2]: maintenance | regeneration of hematopoietic, liver, and colon tissues [3]: enhance regeneration

CC(C(=O)Nc1cc(C#N)ccc1CCCC(=O)O)c1ccc(F)c2ccccc12 (stereo not shown) [ONO-AE3-208]
proliferation induced by PGE2 in presence of EP4 antagonist [4]: blunted

COc1ccc2c(c1)c(CC(=O)O)c(C)n2C(=O)c1ccc(Cl)cc1 [indomethacin]
Twitch force compared to control group [5]: significant loss | luciferase activity (muscle stem cell activation) ([6]; indomethacin injected three days post-cardiotoxin injury): significant decrease

CCCCC(C)(C)[C@H](O)/C=C/[C@H]1[C@H](O)CC(=O)[C@@H]1C/C=C\CCCC(=O)O [dmPGE2, 16,16-dimethyl prostaglandin E2]
specific tetanic force [7]: significantly increased | specific twitch force [7]: significantly increased | engraftment of aged MuSCs relative to controls ([8]; aged MuSCs (250 cells) coinjected with dmPGE2): significantly enhanced | engraftment of young MuSCs relative to controls ([8]; freshly sorted young MuSCs (250 cells) coinjected with 13 nmol dmPGE2): significantly enhanced | myofiber sizes ([9]; aged mice, fourteen days post-injury): increase | increase in the number of endogenous MuSCs ([9]; aged mice, fourteen days post-injury, single dmPGE2 injection): 24±2% | distribution of myofibers (cross-sectional area) ([9]; young mice, day 14 post injury): shifted toward larger sizes | increase in endogenous PAX7-expressing MuSCs ([9]; young mice, fourteen days post cardiotoxin injury, single dmPGE2 bolus): 60+15% | effect on endogenous MuSCs in the absence of injury ([9]; young mice, no injury): no effect | endogenous MuSCs assayed by Pax7-luciferase BLI ([6]; dmPGE2 3 days after cardiotoxin injury): Increase
